Values after ≈ are worked out from the molar mass of the structure shown.
Key:
Format in all cases: cell-based
RhV-14 (Rhinovirus) = assay: microbe, parasite or virus in culture; conditions: 120 hours at 32° C.; for IC50: Enterovirus, 120 h, read-out: IC50, RhV-14 (50 percent inhibition of plaque formation)
RhV-1 (Rhinovirus) = assay: microbe, parasite or virus in culture; conditions: Enterovirus; 120 hours at 32° C.; read-out: IC50, RhV-1 (50 percent inhibition of plaque formation)
RhV-2 (Rhinovirus) = assay: microbe, parasite or virus in culture; conditions: Enterovirus; 120 hours at 32° C.; read-out: IC50, RhV-2 (50 percent inhibition of plaque formation)
RhV-16 (Rhinovirus) = assay: microbe, parasite or virus in culture; conditions: Enterovirus; 120 hours at 32° C.; read-out: IC50, RhV-16 (50 percent inhibition of plaque formation)
PV-1 (poliovirus) = assay: microbe, parasite or virus in culture; conditions: Enterovirus C; 72 hours at 37° C.; read-out: IC50, PV-1 (50 percent inhibition of plaque formation)
CS-B3 (Coxsackie virus) = assay: organism not typed; conditions: 72 hours at 37° C.; read-out: IC50, CS-B3 (50 percent inhibition of plaque formation)
[1] = system: CS-A21C (Coxsackie virus); assay: organism not typed; conditions: 72 hours at 37° C.; read-out: IC50, CS-A21C (50 percent inhibition of plaque formation)

Structure (SMILES)	IC50 (RhV-14 (Rhinovirus)) [µg/mL]	IC50 (PV-1 (poliovirus)) [µg/mL]	further results
CC(C)S(=O)(=O)n1c(N)nc2ccc(/C(=C\C#C[Si](C)(C)C)c3ccc(F)cc3)cc21 [1A (cis)]	3.9 (≈ 8.56 µM)	–	–
CC(C)S(=O)(=O)n1c(N)nc2ccc(/C(=C/C#C[Si](C)(C)C)c3ccc(F)cc3)cc21 [1A (trans)]	10.9 (≈ 23.9 µM)	–	–
C#C/C=C(\c1ccc(F)cc1)c1ccc2nc(N)n(S(=O)(=O)C(C)C)c2c1 [1B (trans)]	0.101 (≈ 0.263 µM)	–	IC50 (RhV-1 (Rhinovirus)): 0.078 µg/mL (≈ 0.203 µM); IC50 (RhV-2 (Rhinovirus)): 0.091 µg/mL (≈ 0.237 µM); IC50 (RhV-16 (Rhinovirus)): 0.032 µg/mL (≈ 0.0835 µM)
C#C/C=C(/c1ccccc1)c1ccc2nc(N)n(S(=O)(=O)C(C)C)c2c1 [2C (cis)]	–	0.19 (≈ 0.52 µM)	IC50 (CS-B3 (Coxsackie virus)): 0.055 µg/mL (≈ 0.15 µM)
C#C/C=C(\c1ccccc1)c1ccc2nc(N)n(S(=O)(=O)C(C)C)c2c1 [2C (trans)]	0.081 (≈ 0.222 µM)	0.035 (≈ 0.0958 µM)	IC50 (RhV-1 (Rhinovirus)): 0.033 µg/mL (≈ 0.0903 µM); IC50 (RhV-2 (Rhinovirus)): 0.065 µg/mL (≈ 0.178 µM); IC50 (RhV-16 (Rhinovirus)): 0.039 µg/mL (≈ 0.107 µM); IC50 [1]: 0.32 µg/mL (≈ 0.876 µM)
C#C/C=C(\c1ccc(OC)cc1)c1ccc2nc(N)n(S(=O)(=O)C(C)C)c2c1 [3 (trans)]	0.059 (≈ 0.149 µM)	0.21 (≈ 0.531 µM)	IC50 (RhV-1 (Rhinovirus)): 0.03 µg/mL (≈ 0.0759 µM); IC50 (RhV-2 (Rhinovirus)): 0.041 µg/mL (≈ 0.104 µM); IC50 (RhV-16 (Rhinovirus)): 0.029 µg/mL (≈ 0.0733 µM)
C#C/C=C(\c1ccc(SC)cc1)c1ccc2nc(N)n(S(=O)(=O)C(C)C)c2c1 [4 (trans)]	–	0.5 (≈ 1.21 µM)	–
C#C/C=C(\c1ccccc1)c1cc2c(cc1F)nc(N)n2S(=O)(=O)C(C)C [5 (trans)]	1.9 (≈ 4.96 µM)	–	–
C#C/C=C(\c1ccc(C)c(C)c1)c1ccc2nc(N)n(S(=O)(=O)C(C)C)c2c1 [8 (trans)]	–	0.1 (≈ 0.254 µM)	–
C#C/C=C(/c1ccccc1)c1ccc2nc(N)n(-c3ccc(OC)cc3)c2c1 [9 (cis)]	–	0.52 (≈ 1.42 µM)	–
C#C/C=C(\c1ccccc1)c1ccc2nc(N)n(-c3ccc(OC)cc3)c2c1 [9 (trans)]	–	0.11 (≈ 0.301 µM)	–
C#C/C=C(/c1ccc(C(C)C)cc1)c1ccc2nc(N)n(S(=O)(=O)C(C)C)c2c1 [11 (cis)]	–	2.74 (≈ 6.72 µM)	–
C#C/C=C(\c1ccc(C(C)C)cc1)c1ccc2nc(N)n(S(=O)(=O)C(C)C)c2c1 [11 (trans)]	–	0.088 (≈ 0.216 µM)	–
C#C/C=C(/c1ccccc1)c1ccc2ncn(S(=O)(=O)C(C)C)c2c1 [12 (cis)]	–	50 (≈ 143 µM)	–
C#C/C=C(\c1ccccc1)c1ccc2ncn(S(=O)(=O)C(C)C)c2c1 [12 (trans)]	–	19.2 (≈ 54.8 µM)	–
C#C/C=C(\c1ccc(C(F)(F)F)cc1)c1ccc2nc(N)n(S(=O)(=O)C(C)C)c2c1 [13 (trans)]	–	0.12 (≈ 0.277 µM)	–
C#C/C=C(\c1cccc(C(F)(F)F)c1)c1ccc2nc(N)n(S(=O)(=O)C(C)C)c2c1 [14 (trans)]	0.331 (≈ 0.764 µM)	–	–
C#CC=C(c1ccc(N(C)C)cc1)c1ccc2nc(N)n(S(=O)(=O)C(C)C)c2c1 [15B (trans)]	0.1 (≈ 0.245 µM)	–	–
C#CC=C(c1cccc(F)c1)c1ccc2nc(N)n(S(=O)(=O)N(C)C)c2c1 [16B (trans)]	0.038 (≈ 0.0988 µM)	–	–

Structure (SMILES)	IC50 (RhV-14 (Rhinovirus)) [µg/mL]	IC50 (PV-1 (poliovirus)) [µg/mL]	further results
C#CC=C(c1cccc(F)c1)c1ccc2nc(N)n(S(=O)(=O)N(C)C)c2c1 [17 (trans)]	–	–	IC50, RhV-14 (50 percent inhibition of plaque formation) (RhV-14 (Rhinovirus)): 0.071 µg/mL
C#CC=C(c1ccc(F)c(F)c1)c1ccc2nc(NS(C)(=O)=O)n(S(=O)(=O)C(C)C)c2c1 [18 (trans)]	1.88 (≈ 3.92 µM)	–	–
C#CC=C(c1ccc(C)cc1)c1ccc2nc(N)n(S(=O)(=O)C(C)C)c2c1 [19 (trans)]	0.078 (≈ 0.206 µM)	–	–
C#CC=C(c1ccc(F)c(F)c1)c1ccc2nc(N)n(S(=O)(=O)C(C)C)c2c1 [20 (trans)]	0.155 (≈ 0.386 µM)	–	–
C#CC=C(c1ccc2nc(N)n(S(=O)(=O)C(C)C)c2c1)c1ccccc1F [21 (cis)]	–	–	IC50, RhV-14 (50 percent inhibition of plaque formation) (RhV-14 (Rhinovirus)): 0.478 µg/mL
C#CC=C(c1ccc2nc(N)n(S(=O)(=O)C(C)C)c2c1)c1ccccc1F [21 (trans)]	–	–	IC50, RhV-14 (50 percent inhibition of plaque formation) (RhV-14 (Rhinovirus)): 0.078 µg/mL
C#CC=C(c1ccccc1)c1ccc2nc(N)n(S(=O)(=O)C(C)C)c2c1F [22 (trans)]	1.9 (≈ 4.96 µM)	–	–
C#CC=C(c1ccccc1)c1cc2c(cc1C)nc(N)n2S(=O)(=O)C(C)C [23 (trans)]	3.9 (≈ 10.3 µM)	–	–
C#CC=C(c1cccc(F)c1)c1ccc2nc(N)n(S(=O)(=O)C(C)C)c2c1 [24 (trans)]	0.088 (≈ 0.229 µM)	–	IC50 (RhV-1 (Rhinovirus)): 0.027 µg/mL (≈ 0.0704 µM); IC50 (RhV-2 (Rhinovirus)): 0.069 µg/mL (≈ 0.18 µM); IC50 (RhV-16 (Rhinovirus)): 0.057 µg/mL (≈ 0.149 µM)
C#CC=C(c1ccc(OC)c(F)c1)c1ccc2nc(N)n(S(=O)(=O)C(C)C)c2c1 [25 (cis)]	–	–	IC50, RhV-14 (50 percent inhibition of plaque formation) (RhV-14 (Rhinovirus)): 0.428 µg/mL
C#CC=C(c1ccc(OC)c(F)c1)c1ccc2nc(N)n(S(=O)(=O)C(C)C)c2c1 [25 (trans)]	–	–	IC50 (RhV-1 (Rhinovirus)): 0.049 µg/mL (≈ 0.119 µM); IC50 (RhV-2 (Rhinovirus)): 0.054 µg/mL (≈ 0.131 µM); IC50, RhV-14 (50 percent inhibition of plaque formation) (RhV-14 (Rhinovirus)): 0.065 µg/mL; IC50 (RhV-16 (Rhinovirus)): 0.06 µg/mL (≈ 0.145 µM)
C#CC=C(c1ccc2nc(N)n(S(=O)(=O)C(C)C)c2c1)c1cc(F)ccc1F [26 (trans)]	0.115 (≈ 0.286 µM)	–	IC50 (RhV-1 (Rhinovirus)): 0.096 µg/mL (≈ 0.239 µM); IC50 (RhV-2 (Rhinovirus)): 0.079 µg/mL (≈ 0.197 µM); IC50 (RhV-16 (Rhinovirus)): 0.099 µg/mL (≈ 0.247 µM)
C#CC=C(c1cccc(Cl)c1)c1ccc2nc(N)n(S(=O)(=O)C(C)C)c2c1 [27 (trans)]	0.253 (≈ 0.633 µM)	–	IC50 (RhV-1 (Rhinovirus)): 0.129 µg/mL (≈ 0.323 µM); IC50 (RhV-2 (Rhinovirus)): 0.123 µg/mL (≈ 0.308 µM); IC50 (RhV-16 (Rhinovirus)): 0.185 µg/mL (≈ 0.463 µM)
C#CC=C(c1ccc(OC(F)(F)F)cc1)c1ccc2nc(N)n(S(=O)(=O)C(C)C)c2c1 [28 (trans)]	–	–	IC50 (RhV-2 (Rhinovirus)): 0.535 µg/mL (≈ 1.19 µM)
C#CC=C(c1cc(F)cc(F)c1)c1ccc2nc(N)n(S(=O)(=O)C(C)C)c2c1 [29 (trans)]	0.236 (≈ 0.588 µM)	–	IC50 (RhV-1 (Rhinovirus)): 0.124 µg/mL (≈ 0.309 µM); IC50 (RhV-2 (Rhinovirus)): 0.176 µg/mL (≈ 0.438 µM); IC50 (RhV-16 (Rhinovirus)): 0.261 µg/mL (≈ 0.65 µM)
C#CC=C(c1ccc([S+](C)[O-])cc1)c1ccc2nc(N)n(S(=O)(=O)C(C)C)c2c1 (stereo not drawn) [30 (trans)]	–	0.07 (≈ 0.164 µM)	–
C#CC=C(c1ccc(S(C)(=O)=O)cc1)c1ccc2nc(N)n(S(=O)(=O)C(C)C)c2c1 [31 (trans)]	–	0.05 (≈ 0.113 µM)	–
CC#CC=C(c1cccc(F)c1)c1ccc2nc(N)n(S(=O)(=O)C(C)C)c2c1 [33D (trans)]	0.19 (≈ 0.478 µM)	–	–

Reference: US5693661A (priority 1995, dated 1997)
